One series has as its system H1703 Cells. As to the kind of experiment: In vitro cytotoxicity of predominant ADC metabolites, H1703. In kind it is cell-based. As for the experimental part:
(§1) Assays were performed in flat bottom 96-well plates in triplicate for each data point. Test articles were first diluted in complete cell culture media using 5-fold dilution series and 100 μL were added into each well. The final concentrations typically ranged from 3×10^−8 M to 8×10^−14 M. The target cells were then added to the test articles at 1,500 to 3,000 cells per well in 100 μL of complete culture media. The mixtures were incubated at 37° C. in a humidified 5% CO2 incubator for 5 days. Viability of the remaining cells was determined by the WST-8 (Tetrazolium salt-8; 2-(2-methoxy-4-nitrophenyl)-3-(4-nitrophenyl)-5-(2,4-disulfophenyl)-2H-tetrazolium) based colorimetric assay using the Cell Counting Kit-8 (Dojindo Molecular Technologies, Inc., Rockville, Md.). The WST-8 is reduced by dehydrogenases in live cells to give a yellow-colored formazan product that is soluble in tissue culture media. […] The WST-8 signals were then measured using a microplate plate reader at optical density of 450 nm. The surviving fraction was calculated by dividing the value of each treated sample by the average value of untreated controls, and plotted against the test article concentrations in a semi-log plot for each treatment. IC50 values were determined using nonlinear regression (curve fit) with GraphPad Prism v5 program (GraphPad Software, La Jolla, Calif.). […]

A further series has as its system COLO704 Cells. Put plainly: In vitro cytotoxicity of predominant ADC metabolites, COLO704. Format: cell-based. As to the method: as §1
The next series has as its system FRα-expressing KB cells. As to the kind of experiment: In vitro metabolism study in KB cells. Format: in vitro ADME. Conditions: KB cells treated with saturating amount of 17c conjugate for 24 hours; UHPLC/HRMS. As for the experimental part:
FRα-expressing KB cells were treated with a saturating amount of 17c conjugate for 24 hours. Catabolite-containing media was incubated with 5 mM NEM to cap any free thiol present and then captured by pre-bound protein A-anti-maytansinoid antibody complex. The catabolites were released by acetone extraction, and analyzed by UHPLC/HRMS.

The subject of a further series is H1975 Cells. As to the kind of experiment: In vitro cytotoxicity of predominant ADC metabolites, H1975. Format: cell-based. As to the method: as §1

On to `COc1cc2cc(c1Cl)N(C)C(=O)C[C@H](OC(=O)[C@H](C)N(C)C(=O)CCCCCSC)[C@]1(C)O[C@H]1[C@H](C)[C@@H]1C[C@@](O)(NC(=O)O1)[C@H](OC)/C=C/C=C(\C)C2` [metabolite 25a, DM-CO—(CH2)5-SMe], for which the IC50 (usually the concentration that gives 50% inhibition) in the series with H1703 Cells worked out at 2.27 pM; with COLO704 Cells, 3.04 pM. For the same molecule, in the series on FRα-expressing KB cells, the “catabolites identified in cell culture media” value is “major effluxed catabolites”.
Turning to `COc1cc2cc(c1Cl)N(C)C(=O)C[C@H](OC(=O)[C@H](C)N(C)C(=O)CCCSC)[C@]1(C)O[C@H]1[C@H](C)[C@@H]1C[C@@](O)(NC(=O)O1)[C@H](OC)/C=C/C=C(\C)C2` [metabolite 25b, DM-CO—(CH2)3-SMe], the 50% inhibitory concentration (IC50) in the series on H1703 Cells is 5.92 pM; with COLO704 Cells, 6.88 pM; in the series on H1975 Cells, 5.6 pM.

Source of the values: patent US11135308B2, “Maytansinoid derivatives with self-immolative peptide linkers and conjugates thereof” (priority 2017, dated 2021).
